Data: ChEMBL document CHEMBL1150536, “Synthesis and pharmacological characterization of l-trans-4-tetrazolylproline (ly300020): A novel systemically-active ampa receptor agonist” (Bioorg Med Chem Lett, 1993)
pIC50: −log10 of the molar value. Calls of active or inactive are those of the source. No cut-off for these calls is given here.

How the values were obtained:
[1] = molecular target: Glutamate receptor ionotropic, AMPA (Rattus norvegicus, UniProt P19490+P19491+P19492+P19493); assay: Tested for the ability to displace [3H]AMPA (5 nM) from Ionotropic glutamate receptor AMPA in rat forebrain membranes; assay type: cell membranes, Membrane
[2] = molecular target: Glutamate receptor ionotropic, NMDA 2C (Rattus norvegicus, UniProt Q00961); assay: Tested for the ability to displace [3H]CGS-19,755 (10 nM) binding in rat forebrain membranes for NMDA receptor; assay type: cell membranes, Membrane
Glutamate receptor ionotropic, NMDA 2C, sequence (Q00961 whole entry): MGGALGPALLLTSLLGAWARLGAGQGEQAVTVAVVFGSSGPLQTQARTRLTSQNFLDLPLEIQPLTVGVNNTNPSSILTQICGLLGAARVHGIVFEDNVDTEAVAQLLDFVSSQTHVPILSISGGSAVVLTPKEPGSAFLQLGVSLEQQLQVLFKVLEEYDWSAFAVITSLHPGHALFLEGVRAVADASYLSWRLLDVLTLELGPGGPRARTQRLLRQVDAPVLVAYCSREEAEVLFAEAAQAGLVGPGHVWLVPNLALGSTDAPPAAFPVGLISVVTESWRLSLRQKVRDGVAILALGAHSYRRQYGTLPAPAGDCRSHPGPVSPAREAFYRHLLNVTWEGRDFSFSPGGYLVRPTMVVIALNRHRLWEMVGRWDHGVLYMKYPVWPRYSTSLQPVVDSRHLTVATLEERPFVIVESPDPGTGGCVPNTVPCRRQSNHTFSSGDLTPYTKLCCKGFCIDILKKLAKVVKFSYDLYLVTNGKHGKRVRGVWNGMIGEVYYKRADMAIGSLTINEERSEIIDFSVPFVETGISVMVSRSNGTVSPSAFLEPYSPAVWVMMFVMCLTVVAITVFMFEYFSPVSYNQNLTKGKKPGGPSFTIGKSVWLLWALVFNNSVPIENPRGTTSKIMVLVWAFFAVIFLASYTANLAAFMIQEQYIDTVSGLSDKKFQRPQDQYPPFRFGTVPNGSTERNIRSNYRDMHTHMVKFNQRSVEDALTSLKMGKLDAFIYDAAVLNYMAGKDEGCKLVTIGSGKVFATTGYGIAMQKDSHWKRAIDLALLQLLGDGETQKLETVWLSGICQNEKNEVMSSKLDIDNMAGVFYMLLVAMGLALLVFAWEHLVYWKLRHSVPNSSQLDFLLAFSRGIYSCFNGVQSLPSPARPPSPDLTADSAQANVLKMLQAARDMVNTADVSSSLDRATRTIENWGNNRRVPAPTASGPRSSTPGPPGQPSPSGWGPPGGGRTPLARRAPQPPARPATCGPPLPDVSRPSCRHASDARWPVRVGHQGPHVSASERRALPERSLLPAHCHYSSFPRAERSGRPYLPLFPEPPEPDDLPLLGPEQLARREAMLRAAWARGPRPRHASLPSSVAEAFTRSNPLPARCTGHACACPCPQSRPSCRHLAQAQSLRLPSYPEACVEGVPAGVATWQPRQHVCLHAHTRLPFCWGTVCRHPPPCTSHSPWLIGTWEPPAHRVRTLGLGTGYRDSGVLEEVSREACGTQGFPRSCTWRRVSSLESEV

[3] = molecular target: Glutamate receptor ionotropic, kainate; assay: Tested for the ability to displace [3H]kainate (5 nM) binding from Ionotropic glutamate receptor kainate in rat forebrain membranes; assay type: cell membranes, Membrane
[4] = species on record: Rattus norvegicus; assay: Tested for the ability to antagonize depolarizations induced by NMDA (40 uM), AMPA (40 uM); insignificant; assay type: functional

Row | pIC50 [1] | pIC50 [2] | pIC50 [3] | Structure (SMILES) | Effect [4]
1 | 5.47 | < 4.00 | 4.21 | O=C(O)[C@@H]1C[C@@H](c2nnn[nH]2)CN1 | inactive
2 | < 4.00 | < 4.00 | < 4.00 | O=C(O)[C@H]1C[C@H](c2nnn[nH]2)CN1 | –
3 | < 4.00 | < 4.00 | < 4.00 | O=C(O)[C@H]1CN[C@H](C(=O)O)C1 | –
